Results taken from patent publication US12251383B2, “Methods and compositions for KRAS inhibitors” (The Board of Regents of the University of Texas System, priority 2019, dated 2025).
Entries after “also recorded” stand apart in the source; their conditions may differ.

What was measured:
[1] = target: GDP-bound KRAS^WT (Homo sapiens, UniProt P01116); experiment: MST binding, GDP-bound KRAS WT; conditions: GDP state
Text: (§1) FIGS. 1A-1D show representative data for the predicted binding mode and measured affinity of disclosed compound 11 to KRAS. (FIG. 1A) Structure of the catalytic domain of KRAS used for the virtual screening. Lobe1 (residues 1-86) and lobe2 (residues 87-166) are highlighted in different colors, as well as switches 1 (residues 30-40) and 2 (residues 60-75). The location of the target allosteric pocket p1 is indicated. (FIG. 1B) Chemical structure of compound 11. (FIG. 1C) Predicted binding pose of compound 11, with the key residues that make polar or vdW contacts with the ligand labeled. (FIG. 1D) Microscale thermophoresis (MST) experiments indicating direct binding of compound 11 to KRAS, along with dissociation constants (KD) derived from the curves. Changes in fluorescence upon titration of […] KRAS with increasing concentration of compound are shown: KRAS^WT (red), KRAS^G12C (green), KRAS^G12D (purple) and KRAS^Q61M (blue), each bound to the non-hydrolyzable GTP analogue, guanylyl imidodiphosphate (GNP). The same experiments indicated no binding to GDP-bound KRAS^G12D and KRAS^WT as well as Rap1B, which was used as control. […]

[2] = target: GDP-bound KRAS^G12D (Homo sapiens, UniProt P01116, G12D); experiment: MST binding, GDP-bound KRAS G12D; conditions: GDP state
Text: as §1

[3] = target: KRAS (Homo sapiens, UniProt P01116); experiment: Nucleotide release assay (intrinsic and SOS-mediated); type: biochemical
Experimental: (FIG. 6A) Chemical structure of compound 13, an analogue of 11 without a benzene on the pyrimidine core. (FIG. 6B) Predicted binding pose of compound 13. […] See legend of FIGS. 2A-2C for additional details. […] (FIG. 6D) Fluorescence polarization of ^BGTP-γ-SKRAS (0.5 μM) with increasing concentration of GST-Raf^RBD in the absence (red) and presence (green) of 20 μM compound 13. (FIG. 6E) Level of GFP-KRAS^G12D pulled down by GST-Raf^RBD after treatment of whole cell lysates with 10 μM of compound 13 (representative Western blots are shown at the top). The RBD sequence length was 1-149 in the fluorescence polarization assay (FIG. 6D) and 51-131 in the pull-down assay (FIG. 6E). (FIG. 6F) Intrinsic (red) and SOS-mediated (blue) nucleotide release rates were determined. Briefly, fluorescence intensity data obtained in a mixture of 0.5 μM KRAS (and SOS), 100 μM GTP and 0 or 50 μM of compound 13 (top), derived from the changes in during the reaction KRAS^BGDP+GTP→KRAS^GTP+BGDP (bottom). Rates were calculated using single exponential fits starting from 120 s, and are show in the inset to the right of the graph.
Nucleotide exchange and release assays. Loading of fluorescent-labeled GDP (BODIPY-GDP; BGDP from hereon) to KRAS was conducted following previous reports (23, 47), with minor modifications. Purified KRAS was buffer-exchanged in NAP-5 column (GE Life Sciences) in low Mg^2+ buffer (25 mM Tris pH 7.5, 50 mM NaCl, and 0.5 mM MgCl2). The eluate was incubated with 10-fold molar excess of BGDP (Life Technologies) in the presence of 5 mM EDTA and 1 mM DTT for 1.5 h at 20° C. in the dark. […] The concentration of ^BGDPKRAS was determined using Bradford assay and a BGDP standard curve. Then the effect of ligands on the intrinsic rate of nucleotide release was monitored using the decrease in fluorescence with time as BGDP dissociates from KRAS in a 100 μL reaction mixture (96-well plate) of 0.5 μM B^GDPKRAS, 100 μM GTP and varying concentrations of ligand (0 to 25 μM); GTP was added just before measurements. To measure the rate of SOS-mediated nucleotide release, 0.5 μM SOS (residues 564-1049, Cytoskeleton Inc) was added after adding GTP, and fluorescence was immediately read (excitation: 485 nm, emission: 510 nm) using Tecan Infinite M200 plate reader. Intrinsic and SOS-mediated nucleotide exchange rates were monitored with the fluorescence intensity increase of BGTP as it displaces GDP from KRAS. […] Experiments were conducted with minimal light and the reaction was monitored for 2 h at room temperature. Fluorescence intensities were normalized at 120 s and the traces were fit with linear or single exponential functions (Igor Pro, Wavemetrics).
The effect of compound 11 on intrinsic and GEF-dependent nucleotide release and exchange reactions was determined. […]

Sequence of KRAS (P01116 1-188 isoform P01116-2): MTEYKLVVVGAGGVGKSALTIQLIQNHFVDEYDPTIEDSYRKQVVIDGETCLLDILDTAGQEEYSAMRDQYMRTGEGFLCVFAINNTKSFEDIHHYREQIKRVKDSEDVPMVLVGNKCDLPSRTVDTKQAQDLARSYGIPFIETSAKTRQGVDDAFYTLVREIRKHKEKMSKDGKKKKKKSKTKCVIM
Sequence of GDP-bound KRAS^WT (P01116 1-188 isoform P01116-2): as above
Sequence of GDP-bound KRAS^G12D (P01116 1-188 isoform P01116-2 G12D): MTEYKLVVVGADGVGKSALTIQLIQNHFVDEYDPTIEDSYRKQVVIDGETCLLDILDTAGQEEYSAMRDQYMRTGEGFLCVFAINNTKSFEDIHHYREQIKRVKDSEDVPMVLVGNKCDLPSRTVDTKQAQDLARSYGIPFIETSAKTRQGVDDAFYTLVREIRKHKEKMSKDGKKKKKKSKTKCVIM

Row | Structure (SMILES) | binding (in words) [1] | binding (in words) [2] | effect on SOS-mediated nucleotide release rate [3] | effect on intrinsic nucleotide release rate [3] | effect on SOS-mediated nucleotide release rate ([3]; 50 μM compound) | effect on intrinsic nucleotide release rate ([3]; 50 μM compound)
1 | Cc1nn2c(N3CCN(CCO)CC3)cc(-c3ccccc3)nc2c1-c1ccccc1 [Compound 11, 2-[4-(8-methyl-3,9-diphenyl-2,6,7-triazabicyclo[4.3.0]nona-2,4,7,9-tetraen-5-yl)piperazin-1-yl]ethanol] | no binding; also recorded: does not bind | no binding | slightly reduced; also recorded: only modestly decreased | no effect | – | –
2 | Cc1cc(N2CCN(CCO)CC2)n2nc(C)c(-c3ccccc3)c2n1 [Compound 13] | does not bind | does not bind | – | – | dramatically increased | dramatically increased
